# Data from patent publication US10220025B1, “Self-emulsifying formulation of CARP-1 functional mimetics” (Florida A&M University, priority 2016, dated 2019).
# Columns and labels:
# [1] = system: MDA-MB-231 TNBC cells, wild type; experiment: MTT viability assay, parental MDA-MB-231; format: cell-based, human; settings: 10 μM dose
# Protocol: In vitro inhibition of cell growth was assessed by MTT (3-[4, 5-dimethyltiazol-2-yl]-2.5-diphenyl tetrazolium bromide) reagent. Cells (5×10^3) were seeded in a 96-well culture plate and subsequently treated with respective agents at different concentrations as mentioned. Control cells were treated with 0.1% DMSO in culture medium. After treatment, the cells were incubated with 1 mg/ml of MTT reagent at 37° C. for 2-4 hours and then MTT was removed and 50 μL of DMSO was added, followed by colorimetric analysis using a multi-label plate reader at 560 nm (Victor3; PerkinElmer, Wellesley, Mass., USA).
# [2] = system: HeLa cervical cancer cells; experiment: MTT viability assay, HeLa; format: cell-based; settings: 20 μM; 24 h; FIG. 3A
# Source text: (§1) The current inventors' previous studies have indicated cancer cell growth inhibitory properties of CFMs in particular CFM-4 and CFM-5 [Puliyappadamba et al.]. […] J. Biomed. Nanotechnol. 2015; 11:1608-1627]. […] J. Biomed. Nanotechnol. 2015; 11:1608-1627]. On the basis of these findings, it was speculated that solubility and/or potency of the CFM-4 scaffold could be improved for its utility as a novel anti-TNBC molecule. To address this possibility, twelve (12) additional analogs of CFM-4 (Table 2) were synthesized using medicinal chemistry based structure activity relationship (SAR) studies. Each of the analog was suspended in DMSO, and their potency was evaluated in cell culture studies utilizing HeLa cervical cancer, MDA-MB-468 TNBC, and H2461 malignant pleural mesothelioma (MPM) cells by MTT based assays. […] Moreover, a 10 μM dose of CFM-4 inhibited MDA-MB-231 and MDA-MB-468 viabilities by ˜30% and 45%, respectively.
# [3] = system: H2461 malignant pleural mesothelioma (MPM) cells; experiment: MTT viability assay, MPM cells; format: cell-based, human; settings: 20 μM; 24 h; FIG. 3A
# Source text: as §1
# [4] = system: CARP-1, cyclin B1, cleaved PARP, caspase-8, p38, MKK4, JNK1/2 in TNBC cells; experiment: Western blot, apoptosis and SAPK signaling; format: cell-based
# Protocol: (§2) For protein expression analysis, Western blot (WB) experiments were performed according to the standard procedures. The cells were either untreated or treated with various agents either alone or in combinations as indicated. Following treatment durations, the cells were lysed in cell lysis (10×) buffer (#9803; cell signaling) containing 0.1% of protease and phosphatase inhibitor cocktail (Sigma) for 20 min at 4° C. The lysates were centrifuged at 14,000 rpm at 4° C. for 15-20 min to remove debris. Protein concentrations of whole cell lysates were determined using the Protein Assay Kit. Supernatant proteins, 50-100 μg from each sample, were separated by SDS-polyacrylamide gel electrophoresis (SDS-PAGE) and transferred to polyvinylidene difluoride (PVDF) membrane (Bio-rad, Hercules, Calif.) by standard procedures. […] The antibody-bound proteins were visualized by treatment with the chemiluminescence detection reagent according to manufacturer's instructions, followed by exposure to X-ray film (Denville Scientific Inc.). The same membranes were re-probed with the anti-β-actin or anti-α-tubulin antibody, which was used as an internal control for protein loading.
# [5] = system: Src, MET, and STAT3 kinases in TNBC cells; experiment: Western blot, oncogenic tyrosine kinases; format: cell-based
# Protocol: as §2
# HUVECs = experiment: in vitro tubule formation (angiogenesis) assay; format: cell-based, human; settings: 12 hours; FIG. 11A
# Protocol: The growth of tubules was monitored over a period of 12 hours. The cells growth in the scratch assay was recorded by photography. Representative photomicrographs of control and treated cells are presented.
# It was next investigated whether CFM-4.16 inhibited TNBC cell migration and growth as colonies in soft agar and 3-dimensional cultures in vitro. In addition, an in vitro tubule formation assay was conducted to determine anti-angiogenic properties of CFM-4.16. […] Moreover, treatments with CFM-4 or CFM-4.16 prevented the parental as well as drug (ADR- or cisplatin-) resistant TNBC sublines and the parental and Herceptin-resistant, Her-2-positive SKBR-3 cells from growing in the areas of wound caused by a scratch (FIGS. 11B, 11C, 12A, 12B, 13A, and 13B).
# [6] = system: parental and drug-resistant TNBC and SKBR-3 cells; experiment: soft-agar clonogenic assay; format: cell-based; settings: 10 μM; FIGS. 11D, 12C, 12D, 13C
# Protocol: A soft-agar sandwich assay was performed. Cells were sandwiched between 0.6% and 0.3% agarose in DMEM medium containing 5% FBS in a six-well chamber (500 cells/chamber), and treated with buffer (Control), or respective agent for noted time and dose at 37° C. humidified CO2 incubator. The colonies from multiple random fields were counted, compared to control and photographed essentially as described before [Jamal S, Cheryan V T, Muthu M, Munie S, Levi E, Ashour A E, Pass H I, Wali A, Singh M, Rishi A K. CARP-1 functional mimetics are a novel class of small molecule inhibitors of malignant pleural mesothelioma cells. PLos One. 2014; 9:e891; Ashour A E, Jamal S, Cheryan V T, Muthu M, Zoheir K M A, Alafeefy A M, Abd-allah A R, Levi E, Tarca A L, Polin L A, Rishi A K. CARP-1 functional mimetics: A novel class of small molecule inhibitors of medulloblastoma cell growth. PLoS One. 2013; 8:e66733; Zhang L, Levi E, Majumder P, Yu Y, Aboukameel A, Du J, Xu H, Mohammad R M, Hatfield J S, Wali A, Adsay V, Majumdar A P N, Rishi A K. Transactivator of transcription tagged cell cycle and apoptosis regulatory protein-1 peptides suppress growth of human breast cancer cells in vitro and in vivo. Mol Cancer Ther. 2007; 6:1661-1672].
# [7] = system: mammospheres of parental and drug-resistant MDA-MB-468 TNBC cells; experiment: three-dimensional mammosphere assay; format: cell-based, human
# Protocol: The TNBC cells were obtained from tumors derived from parental and drug-resistant cells or from a two-dimensional culture plate with ˜70-80% confluence. The cells were washed twice in 1×PBS and trypsinized following established protocols. The cells were pelleted at 200×g at room temperature, and re-suspended in 5 ml of mammosphere media (DMEM/F12 supplemented with 2 mM L-glutamine, 100 U/ml penicillin, […] streptomycin, 1×B27 supplement, 20 ng/ml recombinant human epidermal growth factor (EGF; Sigma), 10 ng/ml recombinant human basic fibroblast growth factor (bFGF; R&D Systems). The cell suspension of ˜5000 viable cells per ml was then seeded in an ultra-low adherent 60 mm plate and incubated at 37° C. and 5% CO2 for two weeks without disturbing the plates. After the mammospheres formed, fresh media with or without 10 μM CFM-4.16 was added and the cells incubated for additional 24 h at 37° C. and 5% CO2. The mammospheres in the untreated and treated plates were photographed, and the cells were then dissociated to determine their viabilities by the MTT assay as described [Lombardo Y, de Giorgio A, Coombes C R, Stebbing J, Castellano L. Mammosphere Formation Assay from Human Breast Cancer Tissues and Cell Lines. J. Vis. Exp. 2015; 97: e52671. doi:10.3791/52671].
# [8] = pharmacokinetic study of CFM-4.16 NLF and free drug (Study 2); format: in vivo, Sprague Dawley Rats; settings: rats; 40 mg/kg orally
# Protocol: J. Biomed. Nanotechnol. 2015; 11:1608-1627]. Briefly, rats were fasted overnight prior to the start of experiments and randomly divided into three experimental groups receiving CFM-4.16 FD and CFM-4.16 NLF at 40 mg/kg orally and CFM-4.16 solution (CFM-4.16 sol) at 5 mg/kg by intravenous route. After the drug administration, blood samples (250 μl) were withdrawn from tail veins at 0, 0.25, 0.5, 1, 2, 4, 6, 8, 12 and 24 h, and collected directly into heparinized microvet blood collection tubes and plasma was obtained by centrifugation at 10,000 rpm for 10 min. The plasma samples were stored at −80° C. until needed for analysis. CFM-4.16 was extracted from the plasma by protein precipitation method and extracted samples were dissolved in mobile phase and samples were analyzed by HPLC. Oral bioavailability of CFM-4.16 FD and CFM-4.16 NLF along with their pharmacokinetic parameters such as area under curve (AUC), Cmax, t½, and tmax were estimated using non-compartmental techniques with WinNonlin® 5.0 software (Pharsight Corporation, Mountain View, Calif., USA).
structure (smiles),measurement,setting,value
O=C1N(Cc2ccccc2Cl)c2ccccc2C12NN=C(c1cccc(Cl)c1)S2 (stereo not shown) [CFM-4.16],inhibition / loss of cell viability,[1],80-100%
same,inhibition of viability compared with CFM-4,[2],greater inhibition of viability
same,loss of viability compared with CFM-4,[3],greater loss of viability
same,apoptosis and SAPK markers in parental and drug-resistant TNBC cells,"[4]; FIGS. 5A-5C, 6A-6D","activated pro-apoptotic SAPKs p38α/β and JNK1/2, caspase-8, while causing cleavage of PARP and decline in mitotic cyclin B1 levels"
same,activation of pro-apoptotic SAPKs in comparison with CFM-4,"[4]; parental and resistant TNBC cells, FIG. 5C",rather robust activation of both the pro-apoptotic SAPKs
same,activation of STAT3,"[5]; ADR as well as Cisplatin-resistant human TNBC cells, FIGS. 7A and 8C",robustly attenuated
same,activation and/or expression of MET and Src tyrosine kinases,[5]; parental and drug-resistant human and murine TNBC cells,reduced activation and/or expression
same,tubule formation by HUVECs compared with untreated control,HUVECs,rather robust disruption in tubule integrity
same,colonies formed in soft agar,[6],significant reduction in size and number of colonies
same,mammosphere integrity,"[7]; 10 μM, 24 h, FIG. 15A",disintegration of mammospheres
same,viability of mammospheres vs DMSO-treated controls,"[7]; parental and ADR-resistant cells, FIG. 15B",robust decline in viability
same,AUC,[8],21070 ± 4200 ng·h/mL
same,plasma Cmax concentration,[8],1190 ± 35 ng/mL
